Data on 2 compounds can be found in US7618774B2, “Materials and methods for identifying genes and/or agents that alter replicative lifespan” (University of Rochester, priority 2003, dated 2009).

Entries after “also recorded” stand apart in the source; their conditions may differ.

The subject of one data set is K6001 cells. Nature of the data set: DEAD assay for replicative lifespan. The class given is cell-based, S. cerevisiae. From the text:
One yeast strain that can be used in the assays of the present invention is S. cerevisiae strain K6001, which carries two distinct non-native genes (i.e., not contained within a single cassette). This strain was originally developed for the study of mating-type switching (Bobola et al. “Asymmetric Accumulation of Ash1p in Postanaphase Nuclei Depends on a Myosin and Restricts Yeast Mating-Type Switching to Mother Cells,” Cell 84:699-709 (1996), which is hereby incorporated by reference in its entirety). K6001 cells contain two independent copies of CDC6 expressed from either the repressible GAL1or mother-cell specific HO promoters. Cdc6p is an essential protein required for DNA replication. Transcription from the HO promoter in daughter cells is prevented by Ash1p, which is expressed exclusively in daughter cells (Sil, et al., “Identification of Asymmetrically Localized Determinant, Ash1p, Required for Lineage-Specific Transcription of the Yeast HO Gene,” Cell 84:711-22 (1996), which is hereby incorporated by reference in its entirety). When K6001 cells are cultured on galactose, GAL1::CDC6 is expressed in both mother and daughter cells, sustaining the replication of both. However, when the GAL1::CDC6 gene is repressed by glucose, only the mother-specific expression of HO::CDC6 remains to support growth. Given the tight regulation of the GAL1promoter, DNA replication fails and daughter cells arrest after one, or at most a few ectopic cytokineses. As a result, K6001 cultures grow approximately linearly in glucose (daughter cells accumulate and contribute to the optical density of the culture) until the mother cells reach their replicative capacity and cease producing daughter cells. Since Cdc6 is naturally unstable, and the GAL1 promoter is efficiently shut off in glucose, the transition from log growth to linear growth is relatively tight and rapid. […]
The DEAD assay was used to assess the effect of deleting SGS1 on replicative lifespan. […] After 48 hrs at 30° C. the number of daughter cells in each microcolony was counted by microdissection and plotted as a survival curve. […]

The next data set relates to yeast. The following applies: literature reports; cited from earlier work.
In the next data set the test system is mammalian cells. The conditions noted are these: literature reports; cited from earlier work.
Another data set deals with Sir2 (Saccharomyces cerevisiae, UniProt P06700). The following applies: in vitro; cited from earlier work.
Sequence of Sir2 (P06700 whole entry): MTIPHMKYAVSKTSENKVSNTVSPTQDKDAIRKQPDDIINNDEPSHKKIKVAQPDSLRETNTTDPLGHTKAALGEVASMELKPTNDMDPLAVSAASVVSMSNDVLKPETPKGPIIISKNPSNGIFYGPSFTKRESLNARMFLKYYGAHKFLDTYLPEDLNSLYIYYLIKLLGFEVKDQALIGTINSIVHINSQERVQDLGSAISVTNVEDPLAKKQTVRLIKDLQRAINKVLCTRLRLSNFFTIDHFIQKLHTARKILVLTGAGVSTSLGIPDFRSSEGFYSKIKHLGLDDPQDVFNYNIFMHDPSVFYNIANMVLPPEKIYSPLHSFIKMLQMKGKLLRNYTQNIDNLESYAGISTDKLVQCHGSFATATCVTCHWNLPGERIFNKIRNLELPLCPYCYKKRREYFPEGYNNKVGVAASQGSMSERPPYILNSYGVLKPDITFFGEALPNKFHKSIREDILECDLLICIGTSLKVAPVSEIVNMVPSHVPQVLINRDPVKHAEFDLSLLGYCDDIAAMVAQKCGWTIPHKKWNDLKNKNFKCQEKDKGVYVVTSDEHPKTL

With `C[n+]1ccc(-c2cc[n+](C)cc2)cc1` [paraquat], the “lifespan (replicative)” value in the data set with K6001 cells (K6001 cells cultured in 5 μM paraquat versus lower concentration, FIG. 4) is reported as “apparently shorter”. The “mean lifespan (replicative)” value in the data set with K6001 cells (K6001 cells, paraquat between 0.1 μM to 5.0 μM, FIG. 4) is given as “decreased in a dose-dependent fashion”. In addition, in the data set with yeast, the “replicative lifespan of yeast” value is “reduce replicative lifespan in yeast”. The apoptosis entry in the data set with mammalian cells is listed as “induce apoptosis in mammalian cells”.

With `Oc1ccc(C=Cc2cc(O)cc(O)c2)cc1` [resveratrol], the “mean lifespan (replicative)” value with K6001 cells (K6001 cells cultured in presence or absence of 10 μM resveratrol, FIG. 3) is “significantly extended the mean lifespan; also recorded: longer mean lifespan”. Further, the Sir2 activation result at Sir2 is “actives Sir2 in vitro”. For the same compound, the “replicative lifespan of yeast” value in the data set on yeast was “extends the replicative lifespan of yeast”.
